Experimental data from US20250281462A1, “THERAPEUTICALLY EFFECTIVE ORAL ADMINISTRATION OF A 2 ARYLBENZIMIDAZOLE” (Tranquis Therapeutics, Inc., priority 2021, published 2025).
Several values for one entry are separate records, joined by “and”; a condition that tells them apart may be missing. Equal entries are not always repeated. Entries after “also recorded” stand apart in the source; their conditions may differ. Where two headings read alike, the source gives them in different places.

How the values were obtained:
older mice = conditions: oral 25 mg/kg; cited from earlier work
[1] = Plasma concentrations after single intravenous dose in rats; assay type: in vivo; conditions: male, Sprague Dawley, rat, 0.5 mg/kg intravenous
Procedure: A total of 3 male, 7-9 week old, Sprague Dawley rats from Vital River were administered a single intravenous dose of TQS-168 at 0.5 mg/kg, in a volume of 0.5 mL/kg. TQS-168 was prepared in solution of 31.6% DMAC+36.8% ethanol+31.6% propylene glycol.
Blood samples were collected at 0.5, 3, 10, 30, 60, 120, 240, 480 and 720 minutes after a single dose of TQS-168 and then processed. Blood samples were collected via saphenous vein puncture into a K2EDTA tube, centrifuged at 4° C. at 4600 rpm for 5 minutes, and plasma collected and stored at less than −20° C. prior to being analyzed by LC-MS for TQS-168 concentrations. Data are presented as concentrations of TQS-168 (ng/mL) in plasma and graphed in FIG. 15 (individual rats) and 16 (average).

[2] = Tissue concentrations (plasma, brain, liver) after single oral dose 25 mg/kg in mice; assay type: in vivo
Procedure: In a first experiment, a total of 3-4 male C57BL6/J mice were administered a single dose of TQS-168 by oral gavage at 25 mg/kg. TQS-168 was prepared for oral gavage as a suspension with 0.5% methylcellulose in PBS.
Tissues were collected at various time points after dosing and processed for LC-MS analyses of TQS-168 concentrations. The tissues analyzed include plasma, brain, and liver. Animals were perfused thoroughly with 20 mL ice cold PBS before brain and liver collection to remove contaminating blood. Data are shown in Table 1 (TQS-168 concentrations in ng/mL).

IL-6 = experiment: LPS-induced IL-6 secretion from BV2 cells (CBA assay); assay type: cell-based, murine; conditions: 1-20 μM
Procedure: Lipopolysaccharide (LPS) is a natural ligand of the TLR4/CD14 complex, which is highly expressed on myeloid cells
LPS was used to induce cytokine secretion from BV-2 cells. Cells were incubated with TQS-168 at various concentrations to assess whether TQS-168 could suppress the LPS-promoted release of various cytokines from in vitro cell cultures. Cytokine secretion was measured by cytometric bead array (CBA) fluorescence-activated cell sorting (FACS).
Briefly, a vial of BV2 frozen stock (1 million cells per ml in complete medium) was thawed into 10 mL of complete medium per vial for a total of 4 vials. The vials were then centrifuged at 1800 rpm for 3 minutes to wash away freezing media. The four vials were then pooled into 25 mL of complete medium. TQS-168 was prepared in DMSO.
Cells were incubated for 24 hours in the presence of medium (negative control), LPS (positive control), DMSO+LPS (positive control, controlling additionally for presence of DMSO in the TQS-168 stock solution), or LPS+TQS-168 at final concentrations of 1 μM, 5 μM, 10 μM, and 20 μM.
After the well plates were incubated overnight for 24 hours, they were centrifuged at 1800 rpm for 5 minutes. Next, 150 μl from each well was transferred to a new set of plates, of which 50 μl was used for CBA. […]

[3] = 25 mg/kg p.o., 0.0 minutes, individual animal, 25 mg/kg
[4] = 25 mg/kg p.o., 15.0 minutes, individual animal, 25 mg/kg
[5] = 25 mg/kg p.o., 60.0 minutes, individual animal, 25 mg/kg
[6] = 25 mg/kg p.o., 120.0 minutes, individual animal, 25 mg/kg
[7] = 25 mg/kg p.o., 240.0 minutes, individual animal, 25 mg/kg
[8] = 25 mg/kg p.o., 480.0 minutes, individual animal, 25 mg/kg
[9] = 25 mg/kg p.o., 1440.0 minutes, individual animal, 25 mg/kg
[10] = 25 mg/kg p.o., 2880.0 minutes, individual animal, 25 mg/kg

In the case of `CC(C)(C)c1ccc(-c2nc3ccccc3[nH]2)cc1` [TQS-168, 2-(4-tert-butylphenyl)-1H-benzimidazole], the behavioral dysfunction (older mice) is given as “alleviate behavioral dysfunction”, the “inflammatory cytokine production in microglia” value (older mice) is given as “inhibit inflammatory cytokine production in microglia” and the “metabolic dysfunction in microglia” value (older mice) is given as “suppress metabolic dysfunction in microglia”. The systemic inflammation (older mice) was “suppress systemic inflammation”, the half-life [1] was 9.72 min and the clearance ([1]; read-out: clearance rate (converted)) was 155 mL/min/kg. For the same molecule, the concentration in brain [2, 3] was 4.2 ng/mL and 10.7 ng/mL and 22.8 ng/mL, the concentration in liver [2, 3] was 2.4 ng/mL and 0.4 ng/mL and 0.7 ng/mL and the concentration in plasma [2, 3] was 0.5 ng/mL and 0.1 ng/mL and 0.0 ng/mL. For the same molecule, the concentration in brain [2, 4] was 21.6 ng/mL and 42.0 ng/mL and 35.2 ng/mL, the concentration in liver [2, 4] was 268.0 ng/mL and 496.0 ng/mL and 575.0 ng/mL and 431.5 ng/mL and the concentration in plasma [2, 4] was 12.6 ng/mL and 18.6 ng/mL and 14.6 ng/mL. The concentration in brain [2, 5] was 253.0 ng/mL and 755.0 ng/mL and 530.0 ng/mL and 630.0 ng/mL, the concentration in liver [2, 5] was 1060.0 ng/mL and 2725.0 ng/mL and 1940.0 ng/mL and 2175.0 ng/mL and the concentration in plasma [2, 5] was 107.0 ng/mL and 47.0 ng/mL and 57.4 ng/mL and 86.0 ng/mL. The concentration in brain [2, 6] was 282.0 ng/mL and 150.5 ng/mL and 242.5 ng/mL, the concentration in liver [2, 6] was 305.5 ng/mL and 2080.0 ng/mL and 1070.0 ng/mL and 1725.0 ng/mL and the concentration in plasma [2, 6] was 110.0 ng/mL and 43.8 ng/mL and 88.6 ng/mL and 131.0 ng/mL. The concentration in brain [2, 7] was 399.0 ng/mL and 143.0 ng/mL and 188.0 ng/mL and 10.6 ng/mL, the concentration in liver [2, 7] was 60.5 ng/mL and 1520.0 ng/mL and 216.5 ng/mL and 680.0 ng/mL and the concentration in plasma [2, 7] was 46.8 ng/mL and 175.0 ng/mL and 3.4 ng/mL and 14.0 ng/mL. For the same molecule, the concentration in brain [2, 8] was 34.8 ng/mL and 20.9 ng/mL and 5.3 ng/mL and 18.2 ng/mL, the concentration in liver [2, 8] was 431.5 ng/mL and 50.5 ng/mL and 37.6 ng/mL and 147.5 ng/mL and the concentration in plasma [2, 8] was 6.0 ng/mL and 2.7 ng/mL and 1.8 ng/mL and 10.9 ng/mL. For the same molecule, the concentration in plasma ([2]; 25 mg/kg p.o., 1440.0 minutes, individual animal) was 0.0 ng/mL, the concentration in brain [2, 9] was 36.3 ng/mL and 8.5 ng/mL and 10.5 ng/mL and 55.5 ng/mL and the concentration in liver [2, 9] was 4.0 ng/mL and 2.6 ng/mL and 0.8 ng/mL and 8.7 ng/mL. For the same molecule, the concentration in plasma ([2]; 25 mg/kg p.o., 2880.0 minutes, individual animal) was 0.0 ng/mL, the concentration in brain [2, 10] was 0.0 ng/mL and 3.0 ng/mL and 2.5 ng/mL and 0.7 ng/mL and the concentration in liver [2, 10] was 0.0 ng/mL (3×) and 1.0 ng/mL. It also gave a concentration at 0 min ([2]; male, C57BL6/J, mouse, brain, po, 25 mg/kg, 25 mg/kg p.o., 0.0 minutes, average, read-out: concentration in brain) of 12.6 ng/mL, a concentration at 15 min ([2]; male, C57BL6/J, mouse, brain, po, 25 mg/kg, 25 mg/kg p.o., 15.0 minutes, average, read-out: concentration in brain) of 34.7 ng/mL and a concentration at 15 minutes ([2]; male, C57BL6/J, mouse, brain, po, 25 mg/kg, 25 mg/kg p.o., 15.0 minutes, individual animal) of 40.2 ng/mL. It also gave a concentration at 60 min ([2]; male, C57BL6/J, mouse, brain, po, 25 mg/kg, 25 mg/kg p.o., 60.0 minutes, average, read-out: concentration in brain) of 542 ng/mL, a concentration at 120 min ([2]; male, C57BL6/J, mouse, brain, po, 25 mg/kg, 25 mg/kg p.o., 120.0 minutes, average, read-out: concentration in brain) of 236 ng/mL and a concentration at 120 minutes ([2]; male, C57BL6/J, mouse, brain, po, 25 mg/kg, 25 mg/kg p.o., 120.0 minutes, individual animal) of 270 ng/mL. It also gave a concentration at 240 min ([2]; male, C57BL6/J, mouse, brain, po, 25 mg/kg, 25 mg/kg p.o., 240.0 minutes, average, read-out: concentration in brain) of 185 ng/mL, a concentration at 480 min ([2]; male, C57BL6/J, mouse, brain, po, 25 mg/kg, 25 mg/kg p.o., 480.0 minutes, average, read-out: concentration in brain) of 19.8 ng/mL and a concentration at 1440 min ([2]; male, C57BL6/J, mouse, brain, po, 25 mg/kg, 25 mg/kg p.o., 1440.0 minutes, average, read-out: concentration in brain) of 27.7 ng/mL. For the same molecule, the concentration at 2880 min ([2]; male, C57BL6/J, mouse, brain, po, 25 mg/kg, 25 mg/kg p.o., 2880.0 minutes, average, read-out: concentration in brain) was 1.5 ng/mL, the concentration at 0 min ([2]; male, C57BL6/J, mouse, liver, po, 25 mg/kg, 25 mg/kg p.o., 0.0 minutes, average, read-out: concentration in liver) was 1.2 ng/mL and the concentration at 15 min ([2]; male, C57BL6/J, mouse, liver, po, 25 mg/kg, 25 mg/kg p.o., 15.0 minutes, average, read-out: concentration in liver) was 443 ng/mL. For the same molecule, the concentration at 60 min ([2]; male, C57BL6/J, mouse, liver, po, 25 mg/kg, 25 mg/kg p.o., 60.0 minutes, average, read-out: concentration in liver) was 1980 ng/mL, the concentration at 120 min ([2]; male, C57BL6/J, mouse, liver, po, 25 mg/kg, 25 mg/kg p.o., 120.0 minutes, average, read-out: concentration in liver) was 1300 ng/mL and the concentration at 240 min ([2]; male, C57BL6/J, mouse, liver, po, 25 mg/kg, 25 mg/kg p.o., 240.0 minutes, average, read-out: concentration in liver) was 619 ng/mL. For the same molecule, the concentration at 480 min ([2]; male, C57BL6/J, mouse, liver, po, 25 mg/kg, 25 mg/kg p.o., 480.0 minutes, average, read-out: concentration in liver) was 167 ng/mL, the concentration at 1440 min ([2]; male, C57BL6/J, mouse, liver, po, 25 mg/kg, 25 mg/kg p.o., 1440.0 minutes, average, read-out: concentration in liver) was 4 ng/mL and the concentration at 2880 min ([2]; male, C57BL6/J, mouse, liver, po, 25 mg/kg, 25 mg/kg p.o., 2880.0 minutes, average, read-out: concentration in liver) was 0.3 ng/mL. For the same molecule, the Cmax ([2]; male, C57BL6/J, mouse, plasma, 25 mg/kg single oral dose) was 93.4 ng/mL and 370 nM, the concentration at 0 min ([2]; male, C57BL6/J, mouse, plasma, po, 25 mg/kg, 25 mg/kg p.o., 0.0 minutes, average, read-out: concentration in plasma) was 0.2 ng/mL and the concentration at 15 min ([2]; male, C57BL6/J, mouse, plasma, po, 25 mg/kg, 25 mg/kg p.o., 15.0 minutes, average, read-out: concentration in plasma) was 16.2 ng/mL. The concentration at 15 min ([2]; male, C57BL6/J, mouse, plasma, po, 25 mg/kg, 25 mg/kg p.o., 15.0 minutes, individual animal, read-out: concentration in plasma) was 18.8 ng/mL, the concentration at 60 min ([2]; male, C57BL6/J, mouse, plasma, po, 25 mg/kg, 25 mg/kg p.o., 60.0 minutes, average, read-out: concentration in plasma) was 74.4 ng/mL and the concentration at 120 min ([2]; male, C57BL6/J, mouse, plasma, po, 25 mg/kg, 25 mg/kg p.o., 120.0 minutes, average, read-out: concentration in plasma) was 93.4 ng/mL. It also gave a concentration at 240 min ([2]; male, C57BL6/J, mouse, plasma, po, 25 mg/kg, 25 mg/kg p.o., 240.0 minutes, average, read-out: concentration in plasma) of 59.8 ng/mL, a concentration at 480 min ([2]; male, C57BL6/J, mouse, plasma, po, 25 mg/kg, 25 mg/kg p.o., 480.0 minutes, average, read-out: concentration in plasma) of 5.3 ng/mL and a concentration at 1440 min ([2]; male, C57BL6/J, mouse, plasma, po, 25 mg/kg, 25 mg/kg p.o., 1440.0 minutes, average, read-out: concentration in plasma) of 0 ng/mL. It also gave a concentration at 1440 min ([2]; male, C57BL6/J, mouse, plasma, po, 25 mg/kg, 25 mg/kg p.o., 1440.0 minutes, individual animal, read-out: concentration in plasma) of 0 ng/mL, a concentration at 2880 min ([2]; male, C57BL6/J, mouse, plasma, po, 25 mg/kg, 25 mg/kg p.o., 2880.0 minutes, average, read-out: concentration in plasma) of 0 ng/mL and a concentration at 2880 min ([2]; male, C57BL6/J, mouse, plasma, po, 25 mg/kg, 25 mg/kg p.o., 2880.0 minutes, individual animal, read-out: concentration in plasma) of 0 ng/mL. For the same molecule, the “reduction of LPS-induced IL-6 secretion, dose response” value (IL-6) was “concentration-dependent; also recorded: dose-responsive inhibition”.
